Measured values: patent US20050222146A1, “N-substituted-n-sulfonylaminocyclopropane compounds and pharmaceutical use thereof” (priority 2003, published 2005)

Tests used:
[1] = target: T1, aggrecanase-1 (Homo sapiens, UniProt O75173); assay: Aggrecanase-1 inhibitory action, Particle Assay (GAG release from aggrecan-containing polyacrylamide particles); type: biochemical; conditions: 37° C. for 15 hr, read-out: Experimental Example 1 IC50 AG1
T1 sequence (O75173 213-837): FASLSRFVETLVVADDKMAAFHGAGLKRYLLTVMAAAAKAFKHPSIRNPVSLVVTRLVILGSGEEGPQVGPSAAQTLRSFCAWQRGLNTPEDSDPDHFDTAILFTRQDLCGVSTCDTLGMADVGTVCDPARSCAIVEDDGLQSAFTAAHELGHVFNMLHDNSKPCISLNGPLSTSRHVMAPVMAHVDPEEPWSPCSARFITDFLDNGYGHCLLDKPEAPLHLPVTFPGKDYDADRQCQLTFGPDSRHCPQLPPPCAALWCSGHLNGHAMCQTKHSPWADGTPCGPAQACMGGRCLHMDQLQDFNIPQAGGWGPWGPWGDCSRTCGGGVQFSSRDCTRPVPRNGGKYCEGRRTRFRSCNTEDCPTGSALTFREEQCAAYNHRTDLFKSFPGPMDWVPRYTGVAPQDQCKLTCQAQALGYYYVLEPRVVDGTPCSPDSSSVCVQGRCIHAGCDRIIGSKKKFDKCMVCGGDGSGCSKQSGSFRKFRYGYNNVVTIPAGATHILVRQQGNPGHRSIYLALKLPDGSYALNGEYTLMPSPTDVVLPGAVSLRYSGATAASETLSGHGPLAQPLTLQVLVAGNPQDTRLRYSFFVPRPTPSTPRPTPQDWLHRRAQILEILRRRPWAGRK
In short: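 Enzyme and test compound (DMSO dilutions) in Tris-HCl buffer incubated with aggrecan-containing polyacrylamide particles at 37 °C for 15 hr. Released GAG in supernatant quantified with 1,9-dimethylmethylene blue at 595 nm against whale chondroitin sulfate standard; % inhibition versus enzyme-free and inhibitor-free wells gives IC50 (μM).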

[2] = target: T2, MMP-1 (Homo sapiens, UniProt P03956); assay: MMP-1 inhibitory action, Type I collagen Activity Measurement kit (FITC-labeled collagen type I); type: biochemical; conditions: 37° C. for 3 hr, read-out: Experimental Example 2 IC50 MMP1
T2 sequence (P03956 100-469): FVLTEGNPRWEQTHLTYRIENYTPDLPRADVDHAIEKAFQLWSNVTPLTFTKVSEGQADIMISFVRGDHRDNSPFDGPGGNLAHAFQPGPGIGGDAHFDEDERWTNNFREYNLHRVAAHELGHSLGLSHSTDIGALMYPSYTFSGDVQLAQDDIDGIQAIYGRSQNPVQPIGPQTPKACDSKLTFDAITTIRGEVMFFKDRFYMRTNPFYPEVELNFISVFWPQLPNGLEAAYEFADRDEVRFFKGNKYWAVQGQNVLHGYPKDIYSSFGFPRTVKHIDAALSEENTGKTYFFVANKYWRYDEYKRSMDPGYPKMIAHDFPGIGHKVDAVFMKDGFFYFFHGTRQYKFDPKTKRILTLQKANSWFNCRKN

SMILES | IC50 [1] [nM] | IC50 [2] [nM]
O=C(O)[C@@]1(N(CCCNc2nn[nH]n2)S(=O)(=O)c2ccc(-c3ccc(Cl)cc3)cc2)C[C@H]1c1ccccc1 (relative stereo) [Example 1-110, (1R*,2S*)-1-{(4′-chloro-biphenyl-4-sulfonyl)-[3-(2H-tetrazol-5-ylamino)-propyl]-amino}-2-phenyl-cyclopropanecarboxylic acid] | < 1000 | ≥ 10000
COC(=O)c1cn(CCN([C@]2(C(=O)O)C[C@H]2c2ccccc2)S(=O)(=O)c2ccc(-c3ccc(Cl)cc3)cc2)cn1 (relative stereo) [Example 1-112, 1-{2-[((1R*,2S*)-1-carboxy-2-phenyl-cyclopropyl)-(4′-chloro-biphenyl-4-sulfonyl)-amino]-ethyl}-1H-imidazole-4-carboxylic acid methyl ester] | < 1000 | ≥ 10000
CNC(=O)c1cn(CCN([C@]2(C(=O)O)C[C@H]2c2ccccc2)S(=O)(=O)c2ccc(-c3ccc(Cl)cc3)cc2)cn1 (relative stereo) [Example 1-113, (R*,2S*)-1-{(4′-chloro-biphenyl-4-sulfonyl)-[2-(4-methylcarbamoyl-imidazol-1-yl)-ethyl]-amino}-2-phenyl-cyclopropanecarboxylic acid] | < 100 | ≥ 10000
O=C(O)[C@@]1(N(CCO)S(=O)(=O)c2ccc(-c3ccc(Cl)cc3)cc2)C[C@H]1c1cccc(Oc2ccccc2)c1 (relative stereo) [Example 1-114, (1R*,2S*)-1-[(4′-chloro-biphenyl-4-sulfonyl)-(2-hydroxy-ethyl)-amino]-2-(3-phenoxy-phenyl)-cyclopropanecarboxylic acid] | < 1000 | ≥ 10000
O=C(O)c1cccc(CN([C@]2(C(=O)O)C[C@H]2c2ccccc2)S(=O)(=O)N2CCN(c3ccc(Cl)cc3)CC2)c1 (relative stereo) [Example 1-115, 3-({((1R*,2S*)-1-carboxy-2-phenyl-cyclopropyl)-[4-(4-chloro-phenyl)-piperazine-1-sulfonyl]-amino}-methyl)-benzoic acid] | < 1000 | ≥ 10000
O=C(O)[C@]12[C@H](CCN1S(=O)(=O)c1ccc(-c3ccc(Cl)cc3)cc1)[C@H]2c1ccccc1 (relative stereo) [Example 2-02, (1R*, 5R*,6S*)-2-(4′-chlorobiphenyl-4-sulfonyl)-6-phenyl-2-aza-bicyclo[3.1.0]hexane-1-carboxylic acid] | ≥ 10000 | ≥ 10000
O=C(O)CN(C1(C(=O)O)C[C@H]1Cc1ccccc1)S(=O)(=O)c1ccc(-c2ccc(Cl)cc2)cc1 (stereo in doubt) [Example 1-3, (1S,2R)-2-benzyl-1-[carboxymethyl-(4′-chloro-biphenyl-4-sulfonyl)-amino]-cyclopropanecarboxylic acid] | < 1000 | ≥ 10000
COc1cccc([C@@H]2CC2(C(=O)O)N(CC(=O)O)S(=O)(=O)c2ccc(-c3ccc(Cl)cc3)cc2)c1 (stereo in doubt) [Example 1-21, (1R*,2S)-1-[carboxymethyl-(4′-chloro-biphenyl-4-sulfonyl)-amino]-2-(3-methoxy-phenyl)-cyclopropanecarboxylic acid] | < 1000 | ≥ 10000
NC(=O)CN(C1(C(=O)O)C[C@H]1c1ccccc1)S(=O)(=O)c1ccc(-c2ccc(Cl)cc2)cc1 (stereo in doubt) [Example 1-36, (1R*,2S)-1-[carbamoylmethyl-(4′-chloro-biphenyl-4-sulfonyl)-amino]-2-phenyl-cyclopropanecarboxylic acid] | < 1000 | ≥ 10000
O=C(O)CN([C@]1(C(=O)O)C[C@H]1c1ccccc1)S(=O)(=O)c1ccc(-c2ccc(Cl)cc2)cc1 [Example 1-2, (1R,2S)-1-[carboxymethyl-(4′-chloro-biphenyl-4-sulfonyl)-amino]-2-phenyl-cyclopropanecarboxylic acid] | < 100 | ≥ 10000
O=C(O)CN(C1(C(=O)O)CC1c1cccc(OCc2ccccc2)c1)S(=O)(=O)c1ccc(-c2ccc(Cl)cc2)cc1 (stereo not drawn) [Example 1-50] | < 1000 | ≥ 1000
O=C(O)C1(N(Cc2noc(=O)[nH]2)S(=O)(=O)c2ccc(-c3ccc(Cl)cc3)cc2)CC1c1ccccc1 (stereo not drawn) [Example 1-64, (R*,2S*)-1-[(4′-chlorobiphenyl-4-sulfonyl)-(5-oxo-4,5-dihydro[1.2.4]oxadiazol-3-ylmethyl)-amino]-2-phenylcyclopropanecarboxylic acid] | < 100 | ≥ 10000
O=C(O)c1cnn(CCN(C2(C(=O)O)CC2c2ccccc2)S(=O)(=O)c2ccc(-c3ccc(Cl)cc3)cc2)c1 (stereo not drawn) [Example 1-79, 1-{2-[(1R*,2S*)-1-carboxy-2-phenyl-cyclopropyl)-(4′-chloro-biphenyl-4-sulfonyl)-amino]-ethyl}-1H-pyrazol-4-carboxylic acid] | < 100 | ≥ 10000
O=C(O)c1cc(CN(C2(C(=O)O)CC2c2ccccc2)S(=O)(=O)c2ccc(-c3ccc(Cl)cc3)cc2)on1 [Example 1-82, 5-{[((R, 2S*-1-carboxy-2-phenyl-cyclopropyl)-(4′-chloro-biphenyl-4-sulfonyl)-amino]-methyl}-isooxazole-3-carboxylic acid] | < 1000 | ≥ 10000
O=C1NS(=O)(=O)N(CCN(C2(C(=O)O)CC2c2ccccc2)S(=O)(=O)c2ccc(-c3ccc(Cl)cc3)cc2)C1=O (stereo not drawn) [Example 1-83, (1R*,2S*)-1-{(4′-chloro-biphenyl-4-sulfonyl)-[2-(1,1,3,4-tetraoxo-llambda*6*-[1,2,5]thiadiazolidin-2-yl)-ethyl]-amino}-2-phenyl-cyclopropanecarboxylic acid] | < 100 | ≥ 10000
NS(=O)(=O)NCCN(C1(C(=O)O)CC1c1ccccc1)S(=O)(=O)c1ccc(-c2ccc(Cl)cc2)cc1 (stereo not drawn) [Example 1-84] | < 1000 | ≥ 10000
O=C(O)c1cccc(CN(C2(C(=O)O)CC2c2cccc(OCCn3ccnc3)c2)S(=O)(=O)c2ccc(-c3ccc(Cl)cc3)cc2)c1 (stereo not drawn) [Example 1-95, 3-{[{(1R*,2S*-1-carboxy-2-[3-(2-imidazol-1-yl-ethoxy)-phenyl]-cyclopropyl}-(4′-chloro-biphenyl-4-sulfonyl)-amino]-methyl}-benzoic acid] | < 100 | ≥ 1000
O=C(O)c1cccc(CN(C2(C(=O)O)CC2c2cccc(Oc3cccnc3)c2)S(=O)(=O)c2ccc(-c3ccc(Cl)cc3)cc2)c1 (stereo not drawn) [Example 1-102, 3-{[{(1R*,2S*-1-carboxy-2-[3-(pyridin-3-yloxy)-phenylcyclopropyl}-(4′-chloro-biphenyl-4-sulfonyl)-amino]-methyl}-benzoic acid] | < 100 | ≥ 10000
O=C(O)C(=O)c1ccc(CN(C2(C(=O)O)CC2c2ccccc2)S(=O)(=O)c2ccc(-c3ccc(Cl)cc3)cc2)cc1 (stereo not drawn) [Example 1-103, (1R*,2S*)-1-[(4′-chloro-biphenyl-4-sulfonyl)-(4-oxalyl-benzyl)-amino]-2-phenyl-cyclopropanecarboxylic acid] | < 100 | ≥ 10000
O=C(O)c1cn(CCN(C2(C(=O)O)CC2c2ccccc2)S(=O)(=O)c2ccc(-c3ccc(Cl)cc3)cc2)cn1 (stereo not drawn) [Example 1-104, 1-{2-[(1R*,2S*)-1-carboxy-2-phenyl-cyclopropyl)-(4′-chloro-biphenyl-4-sulfonyl)-amino]-ethyl}-1H-imidazole-4-carboxylic acid] | < 100 | ≥ 10000
O=C(O)[C@@]1(N(CCN2CCOCC2)S(=O)(=O)c2ccc(-c3ccc(Cl)cc3)s2)C[C@H]1c1ccccc1 [Example 2-14, (1R,2S)-1-[[5-(4-Chloro-phenyl)-thiophene-2-sulfonyl]-(2-morpholin-4-yl-ethyl)-amino]-2-phenyl-cyclopropanecarboxylic acid] | ≥ 1000 | ≥ 10000
